“And” between values parts separate entries of the source, which are not always exact repeats. Equal values may be shown once.
Test: molar heat capacity at constant volume
Conditions: Vacuum adiabatic calorimetry

CC(C)O [propan-2-ol]
Fluid (supercritical or subcritical phases)
Conditions	molar heat capacity at constant volume
508.38 K, Mass density=274 kg/m3	423.79 J/K/mol
508.38 K, Mass density=281.9 kg/m3	417.78 J/K/mol
508.38 K, Mass density=288.99 kg/m3	404.68 J/K/mol
508.38 K, Mass density=293.3 kg/m3	398.73 J/K/mol
508.38 K, Mass density=343.1 kg/m3	178 J/K/mol
508.47 K, Mass density=234.3 kg/m3	474.81 J/K/mol
508.47 K, Mass density=255.8 kg/m3	454.98 J/K/mol
508.47 K, Mass density=266.3 kg/m3	444.04 J/K/mol
508.47 K, Mass density=274 kg/m3	437.73 J/K/mol
508.47 K, Mass density=281.9 kg/m3	430.04 J/K/mol
508.47 K, Mass density=288.99 kg/m3	411.05 J/K/mol
508.47 K, Mass density=293.3 kg/m3	405.04 J/K/mol
508.47 K, Mass density=324.5 kg/m3	207.09 J/K/mol
508.47 K, Mass density=329.2 kg/m3	191.7 J/K/mol
508.47 K, Mass density=343.1 kg/m3	175.96 J/K/mol
508.51 K, Mass density=234.3 kg/m3	487.37 J/K/mol and 279.44 J/K/mol
508.56 K, Mass density=234.3 kg/m3	267.78 J/K/mol
508.56 K, Mass density=255.8 kg/m3	471.14 J/K/mol
508.56 K, Mass density=266.3 kg/m3	462.31 J/K/mol
508.56 K, Mass density=274 kg/m3	451.49 J/K/mol
508.56 K, Mass density=281.9 kg/m3	440.92 J/K/mol
508.56 K, Mass density=288.99 kg/m3	425.11 J/K/mol
508.56 K, Mass density=293.3 kg/m3	419.1 J/K/mol
508.56 K, Mass density=324.5 kg/m3	206.31 J/K/mol
508.56 K, Mass density=343.1 kg/m3	177.52 J/K/mol
508.57 K, Mass density=329.2 kg/m3	186.9 J/K/mol
508.61 K, Mass density=293.3 kg/m3	422.11 J/K/mol
508.66 K, Mass density=234.3 kg/m3	258.83 J/K/mol
508.66 K, Mass density=255.8 kg/m3	495.78 J/K/mol
508.66 K, Mass density=266.3 kg/m3	484.85 J/K/mol
508.66 K, Mass density=274 kg/m3	472.11 J/K/mol
508.66 K, Mass density=281.9 kg/m3	456.18 J/K/mol
508.66 K, Mass density=288.99 kg/m3	439.35 J/K/mol
508.66 K, Mass density=293.3 kg/m3	428.48 J/K/mol
508.66 K, Mass density=324.5 kg/m3	201.38 J/K/mol
508.66 K, Mass density=343.1 kg/m3	178 J/K/mol
508.67 K, Mass density=274 kg/m3	481 J/K/mol
508.67 K, Mass density=329.2 kg/m3	188.1 J/K/mol
508.68 K, Mass density=281.9 kg/m3	461.83 J/K/mol
508.68 K, Mass density=293.3 kg/m3	434.49 J/K/mol and 253.6 J/K/mol
508.69 K, Mass density=255.8 kg/m3	507.8 J/K/mol
508.69 K, Mass density=274 kg/m3	491.94 J/K/mol
508.69 K, Mass density=288.99 kg/m3	447.41 J/K/mol and 264.72 J/K/mol
508.7 K, Mass density=255.8 kg/m3	524.03 J/K/mol and 301.68 J/K/mol
508.71 K, Mass density=266.3 kg/m3	520.48 J/K/mol
508.71 K, Mass density=281.9 kg/m3	469.58 J/K/mol and 277.46 J/K/mol
508.72 K, Mass density=266.3 kg/m3	572.71 J/K/mol and 337.73 J/K/mol
508.72 K, Mass density=274 kg/m3	515.62 J/K/mol and 304.08 J/K/mol
508.72 K, Mass density=293.3 kg/m3	245.07 J/K/mol
508.73 K, Mass density=255.8 kg/m3	293.08 J/K/mol
508.74 K, Mass density=281.9 kg/m3	270.61 J/K/mol
508.75 K, Mass density=234.3 kg/m3	245.01 J/K/mol
508.75 K, Mass density=266.3 kg/m3	306.97 J/K/mol
508.75 K, Mass density=288.99 kg/m3	247.77 J/K/mol
508.75 K, Mass density=324.5 kg/m3	199.15 J/K/mol
508.75 K, Mass density=343.1 kg/m3	175.96 J/K/mol
508.76 K, Mass density=329.2 kg/m3	186.9 J/K/mol
508.84 K, Mass density=234.3 kg/m3	238.7 J/K/mol
508.84 K, Mass density=255.8 kg/m3	268.32 J/K/mol
508.84 K, Mass density=266.3 kg/m3	281.06 J/K/mol
508.84 K, Mass density=274 kg/m3	273.13 J/K/mol
508.84 K, Mass density=281.9 kg/m3	250 J/K/mol
508.84 K, Mass density=288.99 kg/m3	237.68 J/K/mol
508.84 K, Mass density=293.3 kg/m3	231.97 J/K/mol
508.84 K, Mass density=324.5 kg/m3	196.75 J/K/mol
508.84 K, Mass density=343.1 kg/m3	176.44 J/K/mol
508.94 K, Mass density=234.3 kg/m3	228.96 J/K/mol
508.94 K, Mass density=255.8 kg/m3	253 J/K/mol
508.94 K, Mass density=266.3 kg/m3	267.3 J/K/mol
508.94 K, Mass density=274 kg/m3	261.53 J/K/mol
508.94 K, Mass density=281.9 kg/m3	233.77 J/K/mol
508.94 K, Mass density=288.99 kg/m3	223.91 J/K/mol
508.94 K, Mass density=293.3 kg/m3	219.23 J/K/mol
508.94 K, Mass density=324.5 kg/m3	197.11 J/K/mol
509.02 K, Mass density=255.8 kg/m3	241.34 J/K/mol
509.03 K, Mass density=266.3 kg/m3	252.46 J/K/mol
509.03 K, Mass density=274 kg/m3	247.59 J/K/mol
509.03 K, Mass density=281.9 kg/m3	225.96 J/K/mol
509.03 K, Mass density=288.99 kg/m3	217.96 J/K/mol
509.03 K, Mass density=293.3 kg/m3	209.73 J/K/mol
509.03 K, Mass density=324.5 kg/m3	192.42 J/K/mol
509.12 K, Mass density=234.3 kg/m3	213.22 J/K/mol
509.12 K, Mass density=266.3 kg/m3	242.96 J/K/mol
509.12 K, Mass density=274 kg/m3	238.4 J/K/mol
509.12 K, Mass density=281.9 kg/m3	217.24 J/K/mol

molar heat capacity at constant volume [J/K/mol]
Conditions	508.51 K	508.68 K	508.69 K	508.7 K	508.71 K	508.72 K
Gas	279.44	–	–	301.68	–	337.73
Liquid	–	253.6	264.72	–	277.46	304.08

— the NIST ThermoML archive (doi:10.1016/j.jct.2019.03.023)
